The values below are quoted from earlier work in patent US20040147564A1, “Combinations of glimepiride and the thiazolidinedione for treatment of diabetes” (priority 2003, published 2004).

Molecules are shown by their SMILES.

Assay in data set [1]: not given
The source holds these as a separate data set.

Assay in data set [2]: not given
This is another data set of the same source.

Take `CCC1=C(C)CN(C(=O)NCCc2ccc(S(=O)(=O)NC(=O)N[C@H]3CC[C@H](C)CC3)cc2)C1=O` [glimepiride, 1-[[p-[2-(3-ethyl-4-methyl-2-oxo-3-pyrroline-1-carboxamido)ethyl]phenyl]sulfonyl]-3-(trans-4-methylcyclohexyl)urea]: the Solubility in water (at 25° C.) was at most 100 µg/mL. In addition, the Elimination half-life in data set [1] (at steady state after oral administration) was 5 to 8 h. Besides, in data set [1] (in vivo), the Terminal half-life result was “more than 5 hours”. Also, the “Reduction of absolute HbA1c levels” value in data set [2] (human, in vivo) is on record as 1-2%. Also, the “Increase of plasma insulin levels” value in data set [2] (patients with type 2 diabetes) is recorded as at most 50%.
For `CN(CCOc1ccc(CC2SC(=O)NC2=O)cc1)c1ccccn1` (stereo not drawn) [Rosiglitazone, rosiglitazone], the “Solubility in buffered aqueous solution” value (pH of 2.3) is “readily soluble”.
